Measurements: paper PMC4980009, “Epitope Mapping of a Monoclonal Antibody Directed against Neisserial Heparin Binding Antigen Using Next Generation Sequencing of Antigen-Specific Libraries” (PLoS ONE, 2016)

Tests used:
mAb 31E10/E7 [1] = assay: Solution-equilibrium ELISA (Friguet) KD of NHBA fragment–mAb complexes; assay type: binding, murine; settings: equilibrium in solution, antigen 7 to 480 nM with mAb 0.7 nM, -^§ = No interaction was detected under the tested conditions, read-out: KD ± SD (no interaction detected)
Source text: Next, we sought to directly compare, for their ability to reconstitute the epitope recognized by mAb 31E10/E7, the peptides identified by peptide scanning with the fragments previously identified by PROFILER. To this end, we selected Peptide 5 (Pep-5, spanning P95-E109; Fig 5A) and FrII (D91-A128; Fig 2A) as representatives of the two categories. First, we measured the ability of the fragments to compete with the whole antigen (NHBA-NUbp-His) for binding to mAb 31E10/E7 in the ELISA inhibition assay described above. […] To further analyze this, we measured the affinities of the NHBA fragments for mAb 31E10/E7 using an ELISA assay that can provide reliable estimates of the equilibrium dissociation constant (KD) of antigen-antibody complexes in solution [20].
KD values of complexes between mAb 31E10/E7 and NHBA fragments at equilibrium in solution were measured using the ELISA test of Friguet et al, exactly as described by Heinrich et al.. […] Under these conditions, absorbance is proportional to the concentration of free mAb 31E10/E7 added to each well. The results for each antigen were analyzed using the plot described by Friguet et al ([19]; S2 Fig), which provides a KD value for the complex in solution. Results were expressed as means and standard deviations of the 4 KD values determined for each of the 4 antigen concentrations used to coat the wells.

mAb 31E10/E7 [2] = assay: Inhibition ELISA of mAb 31E10/E7 binding to NHBA-NUbp-His; set-up: species or system murine
Source text: We sought to verify whether the antigenic fragments identified by phage display analysis reacted against the 31E10/E7 mAb in a molecular context other than capsid proteins and how these binding activities compared to that of the whole antigen molecule. For this analysis, FrI and FrII were produced as GST fusion proteins and probed against the 31E10/E7 mAb in an inhibition ELISA assay. A third fragment, FrIII, encompassing residues F324-D391, was also produced in fusion with GST and used as a negative control. In the ELISA inhibition experiments, the NHBA-NUbp-His fusion protein was used as coating antigen and reactivity against 31E10/E7 was measured in the presence and in the absence of GST-FrI, GST-FrII and GST-FrIII.
The immunoreactivity of NHBA antigenic fragments against the 31E10/E7 mAb was tested using a previously described ELISA inhibition assay. Briefly, the 31E10/E7 mAb (1 μg/ml) was preincubated with micromolar concentrations of competitors (represented by the indicated NHBA fragments or by the entire antigen fused to an histidine tail) prior to the addition to microtiter wells sensitized with the whole fusion antigen (NHBA-NUbp fused to an histidine tail or NHBA-NUbp-His, 5 μg/ml). […] Percent inhibition was calculated by comparing the absorbance value of wells with and without the inhibitors.

## TPAS
mAb 31E10/E7 [1]
  Kd: > 480 nM
mAb 31E10/E7 [2]; NHBA-NUbp-His coated 5 μg/ml, mAb 1 μg/ml, Fig 3B, three independent experiments
  competition with the whole antigen for binding to mAb 31E10/E7: but not the TPAS tetrapeptide
mAb 31E10/E7 [2]; even at high concentrations (Fig 3B)
  binding to the mAb: unable to bind the mAb
